Key:
HeLa cells = assay: Histone H3 (Ser10) phosphorylation ELISA, abrogation of camptothecin-induced G2 arrest (CHK-1 cellular assay); assay type: cell-based; settings: Homo sapiens, HeLa, HeLa cells; camptothecin 8 hrs, then compound with nocodozole 16 hours; read-out: EC50
Method: The Histone H3 phosphorylation ELISA assay detects cells entering mitosis and represents the primary in vitro cell-based assay used to measure the cellular potency of compounds in abrogating the G2 check point induced by DNA damage in HeLa cells or MiaPaCa cells. The candidate substances were assayed for potency in their ability to inhibit camptothecin-induced G2 arrest, as measured by an increase in Histone H3 phosphorylation on Ser10, a marker of entry into mitosis.
Tissue culture plates were seeded with HeLa cells or MiaPaCa Cells and allowed to attach overnight. The cells were then treated with camptothecin to induce DNA damage for 8 hrs. Candidate substances or diluent were then added in the presence of nocodozole for 16 hours. […] The fresh whole cell lysates were then thawed and added to the ELISA plate with shaking for 3 hours. Between all subsequent steps plates were washed 4 times with PBST. Biotinylated phospho Histone H3 (ser10) detection antibody was added for 1 hour, followed by addition of horseradish peroxidase-linked streptavidin secondary antibody for 1 hour. Color development of the antibody was performed with addition of TMB substrate and incubation for 2 minutes on a plate shaker. […] EC50 values were calculated by sigmoid curve fitting using a four-parameter analysis.
(§1) Under the “Ki” column, data entries in the format of “%” are percent inhibition data where no Ki data is available. Data entry under the “EC50” column with an * are data obtained using Mia Paca-2 cells rather than HeLa cells. Data is not available where noted as n/a.

CHK1 (kinase domain) = molecular target: T1, CHK1 (kinase domain) (Homo sapiens, UniProt O14757); assay: CHK1 Ki determination, spectrophotometric coupled (pyruvate kinase/lactate dehydrogenase) assay; assay type: biochemical; settings: CHK-1 kinase domain; 150 uM ATP, 125 uM Syntide 2
T1 construct: a solution containing 1 nM of CHK1 (kinase domain)
T1 sequence (O14757 9-265 limits assumed): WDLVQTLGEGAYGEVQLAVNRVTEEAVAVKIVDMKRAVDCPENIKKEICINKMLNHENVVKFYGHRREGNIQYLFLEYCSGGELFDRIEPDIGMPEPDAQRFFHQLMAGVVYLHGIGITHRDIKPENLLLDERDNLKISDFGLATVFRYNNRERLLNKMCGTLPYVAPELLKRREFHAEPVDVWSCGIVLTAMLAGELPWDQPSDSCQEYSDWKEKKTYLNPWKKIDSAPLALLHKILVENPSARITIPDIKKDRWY
Method: After 15 min pre-incubation, the enzymatic reaction was initiated by the simultaneous addition of Syntide 2 peptide (125 uM, final concentration) and ATP (150 uM, final concentration). The kinase-catalyzed production of ADP from ATP that accompanied phosphoryl transfer to the substrate Syntide 2 was coupled to the oxidation of NADH through the activities of pyruvate kinase and lactate dehydrogenase. NADH conversion to NAD^+ was monitored by the decrease in absorbance at 340 nm (ε=6.22 cm^−1 mM^−1) using a microplate reader from Molecular Devices Spectormax Plus (Sunnyvale, Calif.) or BMG LABTECH Inc (Offenburg, Germany).
The inhibition of CHK1 was analyzed by fitting the data to the following equation to determine Kiapp:
[formula] where [E]o and [I]o are the active enzyme and inhibitor concentration, respectively; Ki is the inhibition binding constant and Km the Michaelis-Menten constant for ATP; Vi and Vo are the rates of substrate oxidation in the presence of and in the absence of inhibitor, respectively. EC50 Determination (Cellular Assay)
as §1

Row | EC50 (HeLa cells) | Ki (CHK1 (kinase domain)) | SMILES
1 | 677 nM | 17 nM | FC(F)(F)c1ccc2ncc(-c3cncc(N[C@@H]4CCCNC4)n3)n2c1 [Example 39, N-[(3R)-piperidin-3-yl]-6-[6-(trifluoromethyl)imidazo[1,2-a]pyridin-3-yl]pyrazin-2-amine]
2 | 104 nM | 4.43 nM | FC(F)(F)c1ccn2c(-c3cncc(N[C@@H]4CCCNC4)n3)cnc2c1 [Example 40, N-[(3R)-piperidin-3-yl]-6-[7-(trifluoromethyl)imidazo[1,2-a]pyridin-3-yl]pyrazin-2-amine]
3 | 25.8 nM | 7 nM | c1cn2c(-c3cncc(N[C@@H]4CCCNC4)n3)cnc2s1 [Example 41, 6-Imidazo[2,1-b][1,3]thiazol-5-yl-N-[(3R)-piperidin-3-yl]pyrazin-2-amine]
4 | 29.3 nM | 7 nM | CCc1ccn2c(-c3cncc(N[C@@H]4CCCNC4)n3)cnc2c1 [Example 42, 6-(7-Ethylimidazo[1,2-a]pyridin-3-yl)-N-[(3R)-piperidin-3-yl]pyrazin-2-amine]
5 | 64.6 nM | 6.69 nM | CC(C)c1ccc2ncc(-c3cncc(N[C@@H]4CCCNC4)n3)n2c1 [Example 43, 6-(6-Isopropylimidazo[1,2-a]pyridin-3-yl)-N-[(3R)-piperidin-3-yl]pyrazin-2-amine]
6 | 21 nM | 2.51 nM | Clc1ccn2c(-c3cncc(N[C@@H]4CCCNC4)n3)cnc2c1 [Example 44, 6-(7-Chloroimidazo[1,2-a]pyridin-3-yl)-N-[(3R)-piperidin-3-yl]pyrazin-2-amine]
7 | 52.2 nM | 24.6 nM | CC1(COc2ccc3c(c2)ncn3-c2cncc(N[C@@H]3CCCNC3)n2)COC1 [Example 47, 6-{5-[(3-Methyloxetan-3-yl)methoxy]-1H-benzimidazol1-yl}-N-[(3R)-piperidin-3-yl]pyrazin-2-amine]
8 | 600 nM | 165 nM | c1ccn2c(-c3cncc(N[C@H]4CCNC4)n3)cnc2c1 [Example 48, 6-Imidazo[1,2-a]pyridin-3-yl-N-[(3S)-pyrrolidin-3-yl]pyrazin-2-amine]
9 | 142 nM | 11.7 nM | c1cn2c(-c3cncc(N[C@@H]4CCNC4)n3)cnc2s1 [Example 49, 6-Imidazo[2,1-b][1,3]thiazol-5-yl-N-[(3R)-pyrrolidin-3-yl]pyrazin-2-amine]
10 | 148 nM | 17.4 nM | Cc1ccc2ncc(-c3cncc(N[C@@H]4CCNC4)n3)n2c1 [Example 50, 6-(6-Methylimidazo[1,2-a]pyridin-3-yl)-N-[(3R)-pyrrolidin-3-yl]pyrazin-2-amine]
11 | 95.6 nM | 9.6 nM | Cc1ccn2c(-c3cncc(N[C@@H]4CCNC4)n3)cnc2c1 [Example 51, 6-(7-Methylimidazo[1,2-a]pyridin-3-yl)-N-[(3R)-pyrrolidin-3-yl]pyrazin-2-amine]
12 | 72.9 nM | 9.55 nM | COc1ccn2c(-c3cncc(N[C@@H]4CCNC4)n3)cnc2c1 [Example 52, 6-(7-Methoxyimidazo[1,2-a]pyridin-3-yl)-N-[(3R)-pyrrolidin-3-yl]pyrazin-2-amine]
13 | 459 nM | 37 nM | FC(F)(F)c1ccn2c(-c3cncc(N[C@@H]4CCNC4)n3)cnc2c1 [Example 53, N-[(3R)-pyrrolidin-3-yl]-6-[7-(trifluoromethyl)imidazo[1,2-a]pyridin-3-yl]pyrazin-2-amine]
14 | 1110 nM | 118 nM | CC1(Nc2cncc(-c3cnc4ccccn34)n2)CCCNC1 (stereo not drawn) [Example 54, 6-Imidazo[1,2-a]pyridin-3-yl-N-(3-methylpiperidin-3-yl)pyrazin-2-amine]
15 | 229 nM | 23 nM | COc1ccc2ncc(-c3cncc(N[C@@H]4CCNC4)n3)n2c1 [Example 55, 6-(6-Methoxyimidazo[1,2-a]pyridin-3-yl)-N-[(3R)-pyrrolidin-3-yl]pyrazin-2-amine]
16 | 126 nM | 11.2 nM | CCc1ccn2c(-c3cncc(N[C@@H]4CCNC4)n3)cnc2c1 [Example 56, 6-(7-Ethylimidazo[1,2-a]pyridin-3-yl)-N-[(3R)-pyrrolidin-3-yl]pyrazin-2-amine]
17 | 373 nM | 6.09 nM | CC(C)c1ccc2ncc(-c3cncc(N[C@@H]4CCNC4)n3)n2c1 [Example 57, 6-(6-Isopropylimidazo[1,2-a]pyridin-3-yl)-N-[(3R)-pyrrolidin-3-yl]pyrazin-2-amine]
18 | 9.09 nM | 3 nM | Cc1cn2c(-c3cncc(N[C@@H]4CCCNC4)n3)cnc2s1 [Example 59, 6-(2-Methylimidazo[2,1-b][1,3]thiazol-5-yl)-N-[(3R)-piperidin-3-yl]pyrazin-2-amine]
19 | 8320 nM | 1000 nM | c1cnn2c(-c3cncc(N[C@@H]4CCCNC4)n3)cnc2c1 [Example 60, 6-Imidazo[1,2-b]pyridazin-3-yl-N-[(3R)-piperidin-3-yl]pyrazin-2-amine]
20 | ≥ 10000 nM | 1110 nM | Cc1ncc(-c2cncc(N[C@@H]3CCCNC3)n2)n1C [Example 64, 6-(1,2-dimethyl-1H-imidazol-5-yl)-N-[(3R)-piperidin-3-yl]pyrazin-2-amine]
21 | 501 nM | 33 nM | F[C@H]1CNC[C@@H]1Nc1cncc(-c2cnc3cc(Cl)ccn23)n1 [Example 65, 6-(7-chloroimidazo[1,2-a]pyridin-3-yl)-N-[(3S,4S)-4-fluoropyrrolidin-3-yl]pyrazin-2-amine]
22 | 344 nM | 12.7 nM | F[C@H]1CNC[C@@H]1Nc1cncc(-c2cnn3ccccc23)n1 [Example 66, N-[(3S,4S)-4-fluoropyrrolidin-3-yl]-6-(pyrazolo[1,5-a]pyridin-3-yl)pyrazin-2-amine]
23 | 507 nM | 80 nM | FC[C@@H]1C[C@@H](Nc2cncc(-c3cnc4ccccn34)n2)CN1 [Example 67, N-[(3R,5S)-5-(fluoromethyl)pyrrolidin-3-yl]-6-imidazo[1,2-a]pyridin-3-ylpyrazin-2-amine]
24 | 3560 nM | 37.1 nM | FC[C@@H]1C[C@@H](Nc2cncc(-c3cnc4cc(C(F)(F)F)ccn34)n2)CN1 [Example 78, N-[(3R,5S)-5-(fluoromethyl)pyrrolidin-3-yl]-6-[7-(trifluoromethyl)imidazo[1,2-a]pyridin-3-yl]pyrazin-2-amine]
25 | 184 nM | 5.68 nM | FC[C@@H]1C[C@@H](Nc2cncc(-c3cnn4cc(Cl)ccc34)n2)CN1 [Example 79, 6-(6-chloropyrazolo[1,5-a]pyridin-3-yl)-N-[(3R,5S)-5-(fluoromethyl)pyrrolidin-3-yl]pyrazin-2-amine]
26 | ≥ 10000 nM | 90.7 nM | C[C@@H]1CC[C@@H](Nc2cncc(-c3cnc4ccc(F)cn34)n2)CN1 [Example 88, 6-(6-fluoroimidazo[1,2-a]pyridin-3-yl)-N-[(3R,6R)-6-methylpiperidin-3-yl]pyrazin-2-amine]
27 | ≥ 10000 nM | 261 nM | FC(F)[C@@H]1C[C@@H](Nc2cncc(-c3cnc4cc(C(F)(F)F)ccn34)n2)CN1 [Example 89, N-[(3R,5S)-5-(difluoromethyl)pyrrolidin-3-yl]-6-[7-(trifluoromethyl)imidazo[1,2-a]pyridin-3-yl]pyrazin-2-amine]
28 | ≥ 10000 nM | 70.5 nM | Fc1ccc2ncc(-c3cncc(N[C@H]4CNC[C@H]4F)n3)n2c1 [Example 90, 6-(6-fluoroimidazo[1,2-a]pyridin-3-yl)-N-[(3S,4R)-4-fluoropyrrolidin-3-yl]pyrazin-2-amine]
29 | 497 nM | 18.7 nM | Fc1ccc2ncc(-c3cncc(N[C@@H]4CCNC4)n3)n2c1 [Example 91, 6-(6-fluoroimidazo[1,2-a]pyridin-3-yl)-N-[(3R)-pyrrolidin-3-yl]pyrazin-2-amine]
30 | ≥ 10000 nM | 87.5 nM | Fc1ccc2ncc(-c3cncc(N[C@H]4CNC[C@@H]4F)n3)n2c1 [Example 92, 6-(6-fluoroimidazo[1,2-a]pyridin-3-yl)-N-[(3S,4S)-4-fluoropyrrolidin-3-yl]pyrazin-2-amine]

— US8518952B2, “6 substituted 2-heterocyclylamino pyrazine compounds as CHK-1 inhibitors” (Pfizer Inc., priority 2008, dated 2013)
